Assay [1] concerns the target T1, IDO1 (Homo sapiens, UniProt P14902). Nature of the assay: IDO1 Cellular Assay in HeLa Cells Stimulated with IFNγ. The class given is cell-based. The conditions noted are these: read-out: Hela IC50.
The target of assay [2] is T1, IDO1. In words: IDO1 Human Whole Blood Assay. The conditions noted are these: LPS and IFNγ stimulated. It is filed as cell-based. The arrangement: Human whole blood was drawn in sodium heparin coated tubes from healthy internal donors; from tissue; host or cells: human whole blood from healthy donors, stimulated with LPS and IFNγ. As for the experimental part: IDO1 Human Whole Blood Assay
Compounds to be tested were serially diluted in ten 3-fold steps in DMSO starting from 10 mM. […] LPS and IFNγ was prepared in RPMI to a 10× of final conc. (1000 ng/mL), final concentration is 100 ng/mL.
Human whole blood was drawn in sodium heparin coated tubes from healthy internal donors. 240 μL of blood was transferred to each of the wells of a v-bottom 96 well plate. 30 μL of compound was transferred from intermediate dilution plate, and incubated for 15 min. 30 μL from stimulants was then transferred to blood and mixed thoroughly.
On day 2 isotope labeled standard of kynurenine and tryptophan was made in water at 1Ox concentration and 30 μL was added to the blood at […] final concentration. The assay plates were centrifuged at 300×G for 10 min with no brake to separate plasma from red blood cells. 60 μL of plasma samples was removed without disturbing red blood cells. Plasma was diluted with RPMI in 1:1 ratio and proteins were precipitated out with two volume of Acetonitrile. The plates were centrifuged at 4000×G for 60 min. 20 μL of supernatant was carefully transferred to a 384 well plate contain 40 μL of 0.1% formic acid in water and analyzed by LC/MS/MS.
LC/MS/MS analyses were performed using Thermo Fisher's LX4-TSQ Quantum Ultra system. This system consists of four Agilent binary high-performance liquid chromatography (HPLC) pumps and a TSQ Quantum Ultra triple quadrupole MS/MS instrument. For each sample, 5 μL were injected onto an Atlantis T3 column (2.1 mm×150 mm, […] particle size) from Waters. The mobile phase gradient pumped at 0.8 mL/min was used to elute the analytes from the column at 25° C. […] Mobile phase A consisted of 0.1% formic acid in water. Mobile phase B consisted of 0.1% of formic acid in acetonitrile. Data was acquired in positive mode using a HESI interface. The operational parameters for the TSQ Quantum Ultra instrument were a spray voltage of 4000 V, capillary temperature of 380° C., vaporizer temperature 400° C., shealth gas 60 arbitrary units, Aux gas 20 arbitrary units, tube lens 85 and collision gas 1.2 mTorr. […] The peak area was integrated by Xcalibur Quan software. The ratios between the kynurenine generated in the reaction and 2D6-Kynurenine spiked-in internal standard were used to generate percentage inhibition and IC50 values.

T1 sequence (P14902 whole entry): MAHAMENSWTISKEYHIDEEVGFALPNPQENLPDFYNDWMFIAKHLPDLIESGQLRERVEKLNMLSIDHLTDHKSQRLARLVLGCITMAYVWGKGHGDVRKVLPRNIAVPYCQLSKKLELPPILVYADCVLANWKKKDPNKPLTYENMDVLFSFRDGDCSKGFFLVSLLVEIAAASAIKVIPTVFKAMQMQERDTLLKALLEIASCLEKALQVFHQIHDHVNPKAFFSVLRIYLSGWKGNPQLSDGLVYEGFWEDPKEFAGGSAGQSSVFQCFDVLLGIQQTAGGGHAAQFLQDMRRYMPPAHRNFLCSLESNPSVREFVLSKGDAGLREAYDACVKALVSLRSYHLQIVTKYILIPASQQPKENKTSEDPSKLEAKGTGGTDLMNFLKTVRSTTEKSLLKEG

In the case of `O=C(Nc1ccc(F)cc1)C1(c2ccc3c(n2)CCCN3c2ccnc(C(F)(F)F)n2)COC1` [Example 393, N-(4-fluorophenyl)-3-(5-(2-(trifluoromethyl)pyrimidin-4-yl)-5,6,7,8-tetrahydro-1,5-naphthyridin-2-yl)oxetane-3-carboxamide], the IC50 on IDO1 [1] (about 48 hours) turned out to be 1.6 nM; against IDO1 [2], 131 nM.
For `CC(C(=O)Nc1ccc(F)cc1)c1ccc2c(n1)CCCN2c1ccnc(C2CC2)n1` (stereo not drawn) [Example 366, 2-(5-(2-cyclopropylpyrimidin-4-yl)-5,6,7,8-tetrahydro-1,5-naphthyridin-2-yl)-N-(4-fluorophenyl)propanamide], the IC50 at IDO1 [1] is 3.82 nM; at IDO1 [2], 140 nM.
With `Cc1cncc(N2CCCc3nc(C4(NC(=O)c5ccc(Cl)cc5)CCC4)ccc32)c1` [Example 406, 4-chloro-N-(1-(5-(5-methylpyridin-3-yl)-5,6,7,8-tetrahydro-1,5-naphthyridin-2-yl)cyclobutyl)benzamide], the IC50 on IDO1 [1] (about 48 hours) is 3.18 nM; on IDO1 [2], 2980 nM.
The like results for `C[C@@H](C(=O)Nc1ccc(F)cc1)c1ccc2c(c1)CCCN2C(=O)c1cccc(Cl)c1` (single isomer, unassigned) [Example 53] were, in that order, 2.2 nM and 45 nM.
The corresponding values for `CC(NC(=O)c1ccc(Cl)cc1)c1ccc2c(n1)CCCN2C(=O)C1CC1` (single isomer, unassigned) [Example 125, 4-chloro-N-{1-[5-(cyclopropanecarbonyl)-5,6,7,8-tetrahydro-1,5-naphthyridin-2-yl]ethyl}benzamide] are 8.3 nM and 289 nM.
The like results for `Cc1nc(C(=O)N2CCCc3cc([C@H](C)C(=O)Nc4ccc(F)cn4)ccc32)no1` [Example 65, (2S)-N-(5-fluoropyridin-2-yl)-2-[1-(5-methyl-1,2,4-oxadiazole-3-carbonyl)-1,2,3,4-tetrahydroquinolin-6-yl]propanamide] were, in that order, 1.9 nM and 2610 nM.
In the case of `O=C(C1CC1)N1CCCc2cc(C3(C(=O)Nc4ccc(F)cc4)CCC3)ccc21` [Example 97, 1-[1-(cyclopropanecarbonyl)-1,2,3,4-tetrahydroquinolin-6-yl]-N-(4-fluorophenyl)cyclobutane-1-carboxamide], the results for the IC50 at IDO1 [1] (about 48 hours) and at IDO1 [2] were 1.7 nM and 11 nM, respectively.
The corresponding values for `Cc1ccnc(C(=O)N2CCCc3nc(C(C)NC(=O)c4ccc(Cl)cc4)ccc32)n1` (stereo not drawn) [Example 287, 4-chloro-N-(1-(5-(4-methylpyrimidine-2-carbonyl)-5,6,7,8-tetrahydro-1,5-naphthyridin-2-yl)ethyl)benzamide] are 1.8 nM and 6 nM.
For the compound `O=C(NC1(c2ccc3c(n2)CCCN3c2ccnc(C3CC3)n2)CC1)c1ccc(F)cc1` [Example 307, 5-(2-cyclopropylpyrimidin-4-yl)-2-(1-(4-fluorobenzamido)cyclopropyl)-5,6,7,8-tetrahydro-1,5-naphthyridin-1-ium 2,2,2-trifluoroacetate], the IC50 on IDO1 [1] (about 48 hours) was 0.89 nM; on IDO1 [2], 63 nM.
The like results for `CC(NC(=O)c1ccc(F)cc1)c1ccc2c(c1)CCCN2C(CO)c1cccc(Cl)c1` (single isomer, unassigned) [Example 93] were, in that order, 5.7 nM and 450 nM.
The corresponding values for `Cc1nccc(N2CCCc3nc(C4(C(=O)Nc5ccc(Cl)cc5)COC4)ccc32)n1` [Example 394, N-(4-chlorophenyl)-3-(5-(2-methylpyrimidin-4-yl)-5,6,7,8-tetrahydro-1,5-naphthyridin-2-yl)oxetane-3-carboxamide] are 1.93 nM and 7 nM.
Turning to `CC(C(=O)Nc1ccc(F)cc1)c1ccc2c(c1)CCCN2C(=O)C1(C(F)(F)F)CC1` (stereo not drawn) [Example 66, N-(4-fluorophenyl)-2-{1-[1-(trifluoromethyl)cyclopropane-1-carbonyl]-1,2,3,4-tetrahydroquinolin-6-yl}propanamide], at IDO1 [1] (about 48 hours), the IC50 was found to be 7.2 nM.
On the same count and under the same terms, next, `CC(NC(=O)c1ccc(Cl)cc1)c1ccc2c(n1)OCCN2C(=O)c1ccccc1` (racemic) [Example 253, N-(1-(1-benzoyl-2,3-dihydro-1H-pyrido[2,3-b][1,4]oxazin-6-yl)ethyl)-4-chlorobenzamide]: 3.5 nM.
The same measure, in the same setting: for `CC(C(=O)Nc1ccc(F)cc1)c1ccc2c(c1)CCCN2C1CCOCC1` (stereo not drawn) [Example 230, N-(4-fluorophenyl)-2-[1-(oxan-4-yl)-1,2,3,4-tetrahydroquinolin-6-yl]propanamide] the value was 5790 nM; for `Cc1nnc(C(=O)N2CCCc3cc(C(C)C(=O)Nc4ccc(F)cc4)ccc32)o1` (stereo not drawn) [Example 44], 16.8 nM.
The same measure, in the same setting: for `COC(C(=O)Nc1ccc(F)cn1)c1ccc2c(c1)CCCN2C(=O)C1CC1` (single isomer, unassigned) [Example 156, 2-(1-(cyclopropanecarbonyl)-1,2,3,4-tetrahydroquinolin-6-yl)-N-(5-fluoropyridin-2-yl)-2-methoxyacetamide] the value was 794 nM; for `O=C(Nc1ccc(F)cc1)C(c1ccc2c(n1)CCCN2C(=O)C1CC1)C1CC1` (stereo not drawn) [Example 260, 2-(5-(cyclopropanecarbonyl)-5,6,7,8-tetrahydro-1,5-naphthyridin-2-yl)-2-cyclopropyl-N-(4-fluorophenyl)acetamide], 34 nM.
In the case of `CC(C(=O)Nc1ccc(F)cc1)c1ccc2c(n1)CCCN2C(=O)C1CCCCO1` (stereo not drawn) [Example 158, N-(4-fluorophenyl)-2-[5-(oxane-2-carbonyl)-5,6,7,8-tetrahydro-1,5-naphthyridin-2-yl]propanamide], the IC50 at IDO1 [1] (about 48 hours) came out at 38.1 nM.
Same read-out and setting: next, `CC(C(=O)Nc1ccc(F)cc1)c1ccc2c(c1)CCCN2C(=O)C1CCCO1` (stereo not drawn) [Example 39, N-(4-fluorophenyl)-2-[1-(oxolane-2-carbonyl)-1,2,3,4-tetrahydroquinolin-6-yl]propanamide]: 5.4 nM; `C[C@H](C(=O)Nc1ccc(F)cn1)c1ccc2c(c1)CCCN2C(=O)C1(F)CC1` (single isomer, unassigned) [Example 63]: 16.5 nM; `CC(C)CC(=O)N1CCCc2cc(CNC(=O)c3ccc(C(C)C)cc3)ccc21` [Example 3, N-{[1-(3-methylbutanoyl)-1,2,3,4-tetrahydroquinolin-6-yl]methyl}-4-(propan-2-yl)benzamide]: 209 nM.
For `C[C@H](C(=O)Nc1ccc(F)cc1)c1ccc2c(c1)CCCN2C(=O)CCOC(C)(C)C` [Example 70, (2S)-2-[1-(3-tert-butoxypropanoyl)-1,2,3,4-tetrahydroquinolin-6-yl]-N-(4-fluorophenyl)propanamide], the IC50 on IDO1 [1] (about 48 hours) came out at 3380 nM.
Still for that read-out and setting: next, `CC(NC(=O)c1ccc(F)cc1)c1ccc2c(n1)CCCN2C(=O)[C@@H]1CCCCO1` (stereo partly drawn) [Example 132, 4-fluoro-N-(1-(5-((S)-tetrahydro-2H-pyran-2-carbonyl)-5,6,7,8-tetrahydro-1,5-naphthyridin-2-yl)ethyl)benzamide]: 48.7 nM.
Same read-out and setting: next, `CC(C(=O)Nc1ccc(F)cc1)c1ccc2c(c1)CCCN2C(=O)c1cnco1` (stereo not drawn) [Example 49, N-(4-fluorophenyl)-2-[1-(1,3-oxazole-5-carbonyl)-1,2,3,4-tetrahydroquinolin-6-yl]propanamide]: 30 nM; `O=C(c1cc(C2CC2)n[nH]1)N1CCCc2cc(C3(C(=O)Nc4ccc(F)cc4)CCC3)ccc21` [Example 117, 1-[1-(3-cyclopropyl-1H-pyrazole-5-carbonyl)-1,2,3,4-tetrahydroquinolin-6-yl]-N-(4-fluorophenyl)cyclobutane-1-carboxamide]: 17.7 nM; `CC(NC(=O)c1ccc(F)cc1)c1ccc2c(n1)C(F)CCN2C(=O)C1CC1` (single isomer, unassigned) [Example 201, N-(1-(5-(cyclopropanecarbonyl)-8-fluoro-5,6,7,8-tetrahydro-1,5-naphthyridin-2-yl)ethyl)-4-fluorobenzamide]: 186 nM.
Same read-out and setting: next, `CC(C)[C@@H](O)C(=O)N1CCCc2cc([C@H](C)C(=O)Nc3ccc(F)cc3)ccc21` (single isomer, unassigned) [Example 72]: 43.8 nM.
`C[C@H](NC(=O)c1ccc(F)cc1)c1ccc2c(n1)CCCN2c1cccc(F)n1` [Example 387, (S)-4-fluoro-N-(1-(5-(6-fluoropyridin-2-yl)-5,6,7,8-tetrahydro-1,5-naphthyridin-2-yl)ethyl)benzamide]: the IC50 on IDO1 [1] is 25.7 nM.

Usually IC50 stands for the concentration that inhibits the measured activity by half.

The values are drawn from patent US12275729B2 (Merck Sharp & Dohme LLC, priority 2017, dated 2025).
